Assay [1] deals with Dual specificity protein phosphatase 3 (Homo sapiens, UniProt P51452). Briefly: VHR phosphatase inhibition, dose response, selectivity assay for STEP inhibitor project, biochemical (AID 602374). In kind it is functional. The settings on record: read-out: IC50_Mean.
The target of assay [2] is T1, Tyrosine-protein phosphatase non-receptor type 22 (Homo sapiens, UniProt Q9Y2R2).
T1 sequence (Q9Y2R2 whole entry): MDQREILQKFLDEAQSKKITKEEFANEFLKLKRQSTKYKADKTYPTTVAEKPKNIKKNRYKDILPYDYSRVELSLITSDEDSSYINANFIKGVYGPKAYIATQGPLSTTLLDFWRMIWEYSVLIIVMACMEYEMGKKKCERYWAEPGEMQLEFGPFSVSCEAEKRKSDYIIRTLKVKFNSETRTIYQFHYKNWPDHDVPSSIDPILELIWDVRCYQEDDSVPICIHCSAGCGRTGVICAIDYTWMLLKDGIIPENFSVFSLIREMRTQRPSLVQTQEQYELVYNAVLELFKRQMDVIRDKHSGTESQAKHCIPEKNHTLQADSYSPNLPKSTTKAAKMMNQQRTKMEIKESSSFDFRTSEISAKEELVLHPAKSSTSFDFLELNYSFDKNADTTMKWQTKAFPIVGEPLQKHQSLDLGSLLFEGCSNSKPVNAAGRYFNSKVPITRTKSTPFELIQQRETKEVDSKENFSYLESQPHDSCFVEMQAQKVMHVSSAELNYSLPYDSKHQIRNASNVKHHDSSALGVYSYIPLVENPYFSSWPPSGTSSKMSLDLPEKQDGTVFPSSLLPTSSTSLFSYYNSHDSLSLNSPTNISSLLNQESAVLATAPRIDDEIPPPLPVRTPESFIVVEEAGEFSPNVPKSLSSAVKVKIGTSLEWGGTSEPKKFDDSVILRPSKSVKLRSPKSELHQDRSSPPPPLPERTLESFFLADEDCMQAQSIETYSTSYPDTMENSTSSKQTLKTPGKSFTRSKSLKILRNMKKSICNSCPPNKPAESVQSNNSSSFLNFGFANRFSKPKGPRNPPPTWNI
Briefly: lymphoid phosphatase LYP inhibitors – biochemical, selectivity assay for STEP inhibitor project, dose response (AID 624241). In kind it is functional.

For assay [3], the target named is T2, Tyrosine-protein phosphatase non-receptor type 5 (Homo sapiens, UniProt P54829).
T2 sequence (P54829 whole entry): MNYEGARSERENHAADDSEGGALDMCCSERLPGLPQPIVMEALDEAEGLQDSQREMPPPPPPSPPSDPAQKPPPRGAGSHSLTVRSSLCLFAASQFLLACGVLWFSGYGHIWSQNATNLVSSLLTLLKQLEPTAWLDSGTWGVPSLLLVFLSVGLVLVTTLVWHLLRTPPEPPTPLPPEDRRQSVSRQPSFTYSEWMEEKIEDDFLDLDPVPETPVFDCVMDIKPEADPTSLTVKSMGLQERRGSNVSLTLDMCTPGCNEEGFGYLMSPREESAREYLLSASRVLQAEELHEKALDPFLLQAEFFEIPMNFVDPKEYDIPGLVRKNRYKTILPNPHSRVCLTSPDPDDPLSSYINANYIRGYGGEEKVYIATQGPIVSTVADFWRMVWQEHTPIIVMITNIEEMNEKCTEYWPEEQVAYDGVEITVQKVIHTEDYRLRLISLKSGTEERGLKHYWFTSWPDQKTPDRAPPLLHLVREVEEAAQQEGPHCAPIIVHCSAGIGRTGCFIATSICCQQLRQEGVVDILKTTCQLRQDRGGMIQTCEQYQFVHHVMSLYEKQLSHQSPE
Kind of assay: PTPN5 enzyme inhibition – biochemical, fluorescence intensity, uHTS hits, confirmation (AID 602372). The settings on record: read-out: IC50_Mean. In kind it is functional.

In assay [4] the target is T3, Tyrosine-protein phosphatase non-receptor type 11 (Homo sapiens, UniProt Q06124).
T3 sequence (Q06124 whole entry): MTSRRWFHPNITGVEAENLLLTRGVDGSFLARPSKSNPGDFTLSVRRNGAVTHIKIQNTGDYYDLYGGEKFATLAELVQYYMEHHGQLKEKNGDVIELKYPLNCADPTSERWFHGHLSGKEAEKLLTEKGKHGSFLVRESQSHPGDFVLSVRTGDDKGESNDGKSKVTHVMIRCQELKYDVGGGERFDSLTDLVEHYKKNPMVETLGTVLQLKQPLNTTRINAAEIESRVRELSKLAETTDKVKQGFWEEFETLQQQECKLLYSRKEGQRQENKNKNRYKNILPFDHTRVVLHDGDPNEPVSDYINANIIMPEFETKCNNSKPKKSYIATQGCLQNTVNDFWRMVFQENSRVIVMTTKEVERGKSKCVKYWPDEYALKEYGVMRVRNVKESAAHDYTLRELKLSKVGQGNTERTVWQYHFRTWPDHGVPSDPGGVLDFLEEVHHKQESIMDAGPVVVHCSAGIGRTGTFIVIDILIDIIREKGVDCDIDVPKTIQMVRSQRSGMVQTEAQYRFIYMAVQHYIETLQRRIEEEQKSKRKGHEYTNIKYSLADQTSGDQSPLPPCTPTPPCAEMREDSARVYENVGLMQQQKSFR
Briefly: PTPN11 enzyme inhibitors – biochemical, selectivity assay for STEP inhibitor project, dose response (AID 602367). The settings on record: read-out: IC50_Mean. In kind it is functional.

Assay [5] has as its target Long-chain-fatty-acid--AMP ligase FadD28 (Mycobacterium tuberculosis, UniProt P9WQ59). Kind of assay: Fluorescence polarization aasay to screen for inhibitors that compete for the binding of FadD28 to a bisubstrate Measured in Biochemical System Using Plate Reader - 2147-01_Inhibitor_Dose_CherryPick_Activity. In kind it is functional, Mycobacterium tuberculosis H37Rv. (Fluorescence polarisation rises when a labelled molecule tumbles more slowly, as on binding a larger partner.)

The subject of assay [6] is H9c2. Kind of assay: cells. It counts as functional, cell-based. To be noted: Rattus norvegicus, H9c2, Myocardium.
Assay [7] concerns the target Galanin receptor type 3 (Homo sapiens, UniProt O60755). Kind of assay: Fluorescence-based cell-based primary high throughput dose response assay to identify antagonists of the Galanin Receptor 3 (GalR3). In kind it is functional.
Assay [8] in a line: cells. In kind it is functional, cell-based. To be noted: HEK-CNG.
The target of assay [9] is T4, Sentrin-specific protease 1 (Homo sapiens, UniProt Q9P0U3).
T4 sequence (Q9P0U3 whole entry): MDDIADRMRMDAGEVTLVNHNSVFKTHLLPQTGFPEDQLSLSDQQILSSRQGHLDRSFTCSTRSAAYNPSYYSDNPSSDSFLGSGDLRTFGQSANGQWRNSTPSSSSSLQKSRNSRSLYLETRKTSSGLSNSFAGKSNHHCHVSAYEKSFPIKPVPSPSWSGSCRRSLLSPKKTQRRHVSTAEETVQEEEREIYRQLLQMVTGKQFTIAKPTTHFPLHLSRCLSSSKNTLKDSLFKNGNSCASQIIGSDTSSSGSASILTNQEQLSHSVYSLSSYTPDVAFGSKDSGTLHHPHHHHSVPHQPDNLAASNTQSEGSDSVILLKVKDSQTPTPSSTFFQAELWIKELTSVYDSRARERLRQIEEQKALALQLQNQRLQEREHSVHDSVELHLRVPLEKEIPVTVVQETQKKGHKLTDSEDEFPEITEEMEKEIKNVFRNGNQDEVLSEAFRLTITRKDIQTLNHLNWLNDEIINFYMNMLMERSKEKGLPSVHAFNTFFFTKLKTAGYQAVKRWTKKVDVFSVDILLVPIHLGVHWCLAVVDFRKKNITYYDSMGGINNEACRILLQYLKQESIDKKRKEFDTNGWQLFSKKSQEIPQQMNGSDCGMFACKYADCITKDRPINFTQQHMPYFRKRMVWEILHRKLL
Briefly: SENP1 catalytic domain blockers, concentration series – biochemical, kinetic FRET, dose response (AID 651697). The settings on record: read-out: IC50_Mean. It counts as functional.

In assay [10] the target is T4, Sentrin-specific protease 1. Briefly: Dose response confirmation of small molecule inhibitors of the catalytic domain of the SUMO protease, SENP1 in a FRET assay. It counts as functional. The settings on record: read-out: IC50_Mean.
In assay [11] the target is Beta-lactamase (Salmonella choleraesuis (strain SC-B67), UniProt Q5J463). Kind of assay: Epi-absorbance-based counterscreen for selective VIM-2 inhibitors: dose response biochemical high throughput screening assay to identify inhibitors of TEM-1 serine-beta-lactamase. In general terms: The purpose of a counterscreen is to sort out artefacts and off-target activity.
The target of assay [12] is T5, Beta-lactamase (Pseudomonas aeruginosa, UniProt Q79MP6). Kind of assay: inhibition of IMP-1 beta-lactamase activity – biochemical, epi-absorbance, selectivity assay for VIM-2 inhibitor project, dose response (AID 1920).
Assay [13] deals with Major prion protein (Homo sapiens, UniProt P04156). It counts as functional, cell-based.
In assay [14] the target is T5, Beta-lactamase. Kind of assay: […] counterscreen for selective VIM-2 inhibitors: dose response biochemical high throughput screening assay to identify inhibitors of IMP-1 metallo-beta-lactamase.
The nature of assay [15]: cells.
Assay [16] in a line: Counterscreen for inhibitors of Trypanosoma brucei methionyl tRNA synthetase (MetRS): Luminescence-based cell-based high throughput dose response assay to identify compounds that are cytotoxic to Jurkat human T lymphocyte cells. In kind it is functional.
Assay [17] deals with T6, Methionyl-tRNA synthetase, putative (Trypanosoma brucei brucei, UniProt Q38C91).
T6 sequence (Q38C91 whole entry): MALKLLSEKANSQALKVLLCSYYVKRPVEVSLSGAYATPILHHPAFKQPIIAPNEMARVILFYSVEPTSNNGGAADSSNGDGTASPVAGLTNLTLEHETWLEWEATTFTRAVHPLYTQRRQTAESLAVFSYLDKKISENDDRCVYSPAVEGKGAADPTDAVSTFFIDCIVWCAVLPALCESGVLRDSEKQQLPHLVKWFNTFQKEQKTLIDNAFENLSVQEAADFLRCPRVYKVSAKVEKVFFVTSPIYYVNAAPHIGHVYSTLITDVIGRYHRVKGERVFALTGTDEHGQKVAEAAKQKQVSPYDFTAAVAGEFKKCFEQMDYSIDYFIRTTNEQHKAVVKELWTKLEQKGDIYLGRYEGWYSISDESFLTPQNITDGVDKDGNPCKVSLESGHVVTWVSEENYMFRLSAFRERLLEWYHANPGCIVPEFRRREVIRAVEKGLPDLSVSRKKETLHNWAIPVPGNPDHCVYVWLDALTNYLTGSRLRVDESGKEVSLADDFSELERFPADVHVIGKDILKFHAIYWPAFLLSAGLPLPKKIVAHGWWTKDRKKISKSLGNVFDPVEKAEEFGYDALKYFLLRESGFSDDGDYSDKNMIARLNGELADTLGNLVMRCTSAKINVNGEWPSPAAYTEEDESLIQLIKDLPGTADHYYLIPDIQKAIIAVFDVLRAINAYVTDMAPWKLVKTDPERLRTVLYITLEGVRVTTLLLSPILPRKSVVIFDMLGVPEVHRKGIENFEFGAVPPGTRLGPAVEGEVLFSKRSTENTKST
In kind it is functional, Trypanosoma brucei brucei strain 927/4 GUTat10.1.

The target of assay [18] is T6, Methionyl-tRNA synthetase, putative. It counts as functional, Trypanosoma brucei brucei strain 927/4 GUTat10.1. This is another data set of the same source.

Calls of active or inactive are those of the source.
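Throughout, for EC50: target is galanin receptor GalR3 read with a cAMP biosensor in HEK293 cells.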

As for `COc1ccc(NC(S)=NCCN2CCC(C)CC2)cc1Cl`, the IC50 in [1] is 0.72 µM (active); in assay [2] it was 43.9 µM (inactive); in assay [3], 11.2 µM (active); in assay [4], 0.999 µM (active).

The AC50 is the concentration at which the activity in the assay is half-maximal. `Cc1noc(NS(=O)(=O)c2ccc(NC(=O)/C=C/c3ccc(C(C)C)cc3)cc2)c1C`: the AC50 in assay [5] is 30.2 µM (active).

Broadly, the EC50 is the concentration needed to bring the measured effect to its halfway point. Regarding `Oc1nc2cccnc2c2ccsc12`, the IC50 in assay [6] was > 79 µM (inactive); in assay [7] it was > 29.9 µM (inactive). Moreover, in assay [8], the EC50 was > 29.9 µM (inactive).

Consider `O=[N+]([O-])C(=C1SCCS1)C(=C(Cl)Cl)N1CCCCC1`, for which the AC50 in assay [5] is > 100 µM (inactive).

As for `NC(=S)c1cc2cc(Br)ccc2oc1=O`, the IC50 in assay [9] is 5.2 µM (active); in assay [10], 3.31 µM (active).

With `O=C(O)c1ccccc1Sc1ncnc2sc3c(c12)CCC3`, the IC50 in [11] is > 59.6 µM (inactive); in [12], > 59.6 µM (inactive); in [13], 7.05 µM (active); in assay [14], > 59.6 µM (inactive); in [15], > 138 µM (inactive).

On to `COc1ccc(/C=C2\SC(=O)N=C2N)cc1`, for which the values for the IC50 in assay [16], in assay [17] and in assay [18] were 83.4 µM (inactive), 119 µM (inactive) and 7.57 µM (active), respectively.

Turning to `OC(c1ccc(Cl)c(Cl)c1)c1nc(-c2ccc(Cl)cc2)c[nH]1` (centres undefined), the IC50 in assay [16] was 51.5 µM (inactive); in assay [17], 7.79 µM (active); in [18], 4.26 µM (active).

For the molecule `COC(=O)[C@]12CCCCC=C1N(Cc1cccc3ccccc13)C(=O)[C@H](CC(=O)NCc1ccc(OC)c(OC)c1)C2`, the IC50 in [7] is > 29.9 µM (inactive). In addition, the EC50 in assay [8] is > 29.9 µM (inactive).

These data come from ChEMBL document CHEMBL1201862, “PubChem BioAssay data set” (2004).
